Values after ≈ are worked out from the molar mass of the structure shown.
Tests used:
Assay type in all cases: cell-based
[1] = system: ATCC9027 strain (Pseudomonas aeruginosa); test: Broth microdilution, antibacterial activity of the compound used alone; details: for MIC: read-out: Antibacterial activity of the compound of Formula I, ATCC9027
Text: (§1) The broth microdilution method was used to test the antibacterial effects of the compounds of the present invention against various Gram-negative bacterial strains when used alone.

[2] = system: ATCC25922 strain (Escherichia coli); test: as above; details: for MIC: read-out: Antibacterial activity of the compound of Formula I, ATCC25922
Text: as §1

[3] = system: ATCC13883 strain (Klebsiella pneumoniae); test: as above; details: for MIC: read-out: Antibacterial activity of the compound of Formula I, ATCC13883
Text: as §1

[4] = system: ATCC19606 strain (Acinetobacter baumannii); test: as above; details: for MIC: read-out: Antibacterial activity of the compound of Formula I, ATCC19606
Text: as §1

[5] = system: ATCC9027 strain (Pseudomonas aeruginosa); test: Checkerboard antibacterial synergistic activity test with polymyxin E (FIC); set-up: key: FIC≤0.5 synergy; 0.5–1 additive; 1–2 indifferent; ≥2 antagonism; details: combined with polymyxin E
Outline: (§2)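 Checkerboard in MH broth: colistin dilutions 16→0.015 μg/ml × test drug 256→4 μg/ml (concentrations before adding inoculum); drug mix plus bacteria, 37° C., 16 h. FIC cut-offs: ≤0.5 synergy; 0.5–1 additive; 1–2 indifferent; ≥2 antagonism.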

[6] = system: ATCC25922 strain (Escherichia coli); test: as above; set-up: key: FIC≤0.5 synergy; 0.5–1 additive; 1–2 indifferent; ≥2 antagonism; details: combined with polymyxin E
Outline: as §2

[7] = system: ATCC13883 strain (Klebsiella pneumoniae); test: as above; set-up: key: FIC≤0.5 synergy; 0.5–1 additive; 1–2 indifferent; ≥2 antagonism; details: combined with polymyxin E
Outline: as §2

[8] = system: ATCC19606 strain (Acinetobacter baumannii); test: as above; set-up: key: FIC≤0.5 synergy; 0.5–1 additive; 1–2 indifferent; ≥2 antagonism; details: combined with polymyxin E
Outline: as §2

SMILES	Antibacterial activity of the compound of Formula I, ATCC9027 [1] [µg/mL]	Antibacterial activity of the compound of Formula I, ATCC25922 [2] [µg/mL]	Antibacterial activity of the compound of Formula I, ATCC13883 [3] [µg/mL]	Antibacterial activity of the compound of Formula I, ATCC19606 [4] [µg/mL]	Synergistic activity (FIC value) ATCC9027 [5]	Synergistic activity (FIC value) ATCC25922 [6]	Synergistic activity (FIC value) ATCC13883 [7]	Synergistic activity (FIC value) ATCC19606 [8]	MIC [1] [µg/mL]	MIC [2] [µg/mL]	MIC [3] [µg/mL]	MIC [4] [µg/mL]
N#Cc1ccc(-c2csc(N=C3NCCCN3)n2)c(Br)c1 [Compound I-174]	256	256	256	256	1.25	0.63	0.52	0.52				
Cc1sc(N=C2NCCCN2)nc1-c1ccccc1Oc1ccccc1Cl [Compound I-145]	256	256	256	256	0.28	0.2	0.13	0.04				
CSc1cc2c(C)cccn2c1-c1c[se]c(N=C2NCCCN2)n1 [Compound I-191]	256	256	256	256	0.51	0.52	0.19	0.13				
Nc1cc(Oc2ccccc2)cc(-c2c[nH]c(N=C3NCCCN3)n2)c1 [Compound I-135]	256	256	256	256	0.53	0.51	0.75	0.26				
NC(N)=Nc1nc(-c2ccc(OCc3ccccc3)cc2)cs1 [Compound I-9]	256	256	256	256	0.31	0.26	0.16	0.13				
NC(N)=Nc1nc(-c2c(S(N)(=O)=O)csc2Cl)cs1 [Compound I-118]					1.25	1.25	0.19	1.25	256 (≈ 758 µM)	256 (≈ 758 µM)	256 (≈ 758 µM)	256 (≈ 758 µM)
N#Cc1cccc(-c2csc(N=C(N)N)n2)c1 [Compound I-21]	64	128	128	256	1.25	0.63	0.52	0.52				
NC(N)=Nc1nc(-c2cccc3cc(Cl)cc(Cl)c23)c(Br)s1 [Compound I-66]	256	256	256	256	0.53	0.38	0.31	0.13				
NC(N)=Nc1nc(-c2ccc(F)cc2Oc2ccc(Cl)cc2Cl)c(Cl)s1 [Compound I-90]	256	256	256	256	0.18	0.15	0.13	0.03				
O=C(Nc1cccc(-c2coc(N=C3NCCCN3)n2)c1)Nc1ccc(Cl)cc1Cl [Compound I-200]	256	256	256	256	0.53	1.25	0.53	0.25				
CSc1cc2c(Cl)cccn2c1-c1c[nH]c(N=C(N)N)n1 [Compound I-129]	256	256	256	256	0.06	0.14	0.09	0.31				
NC(N)=Nc1nc(-c2cccc3c2C(F)(F)c2cc(Br)ccc2-3)cs1 [Compound I-115]					1.25	1.25	1.25	1.25	256 (≈ 608 µM)	256 (≈ 608 µM)	256 (≈ 608 µM)	256 (≈ 608 µM)
Cc1sc(N=C2NCCCN2)nc1-c1cc(I)cc(I)c1 [Compound I-182]	256	256	256	256	0.5	0.56	0.31	0.25				
Clc1ccc(Oc2ccccc2-c2c[nH]c(N=C3NCCCN3)n2)c(Cl)c1 [Compound I-146]	256	256	256	256	0.06	0.14	0.09	0.31				
NC(N)=Nc1nc(-c2ccccc2Oc2ccccc2)cs1 [Compound I-1, 2-(4-(2-phenoxyphenyl)thiazol-2-yl)guanidine]					0.52	1.25	0.53	1.25	256 (≈ 825 µM)	256 (≈ 825 µM)	256 (≈ 825 µM)	256 (≈ 825 µM)

Source: patent publication US20260250257A1, “ANTIBACTERIAL AND SYNERGISTIC ACTIVE COMPOUND AND USE THEREOF” (EAST CHINA UNIVERSITY OF SCIENCE AND TECHNOLOGY, priority 2023, published 2026)
